The source of these data is paper PMC10666548, “Identification of the bacterial metabolite aerugine as potential trigger of human dopaminergic neurodegeneration” (Environment international, 2023).

Each structure is given as a SMILES string. pEC50: −log10 of the molar value. Entries after “also recorded” stand apart in the source; their conditions may differ.

The test system of experiment [1] is peripheral nervous system cells (iPSC-derived peripheral neurons). In words: iPSC-derived neuron viability, calcein-AM & H-33342 imaging. It counts as cell-based, human. The conditions noted are these: 24 h, concentrations up to 100 μM. How it is done:
The human iPSC (Sigma iPSC0028 (EPITHELIAL-1, #IPSC0028) were maintained and differentiated towards immature dorsal root ganglia neurons according to [Hoelting et al. (2016)] ([Hoelting et al., 2016]). Briefly, a total of 90,000 cells/cm^2 were seeded on Matrigel. The differentiation was initiated with neural differentiation medium (KSR-S; Dulbecco’s modified Eagle’s medium [DMEM/F12] containing 15% knockout serum replacement, 1 × Glutamax, 1 × nonessential amino acids, and 50 μM ß-mercaptoethanol) supplemented with 17.5 ng/ml noggin, 10 μM SB-431642 from day of stem cell differentiation (DoD) DoD0 to DoD5. Starting on DoD2 CHIR99021 (1.5 μM), SU5402 (5 μM) and DAPT (5 μM) were added. […]
The assays were performed as described previously ([Hoelting et al., 2016]; [Klima et al., 2021]; [Krug et al., 2013]). […] 24 h after treatment the Calcein/Hoechst readout was performed.
Neurite area (NA) and viability (V) were assessed as described previously ([Stiegler et al., 2011]). […] Image acquisition was performed using an Array-Scan VTI HCS Reader (Cellomics, PA, USA) equipped with a Hamamatsu ORCA-ER camera. […]

The subject of another experiment is other neurons. In words: Toxicity for other neurons (abstract summary). The conditions noted are these: Homo sapiens, Neuron, read-out: half-maximal toxicity for other neurons. It counts as cell-based.
Experiment [2] has as its system GABA neurons of C. elegans Punc-25. The experiment can be described thus: C. elegans GABA neuron degeneration scoring (GFP-labelled neurons). The experiment is classed as in vivo, Caenorhabditis elegans. The settings on record: 48 h exposure. How it is done:
(§1) The strain BY200 Pdat-1::gfp (vtIs1), dat-1::GFP(vtls1) was kindly provided by the Blakely laboratory, Vanderbilt University Medical Center and the strain Punc-25:GFP was obtained from the Caenorhabditis Genetics Center (CGC, University of Minnesota, Minneapolis, MN, USA). The worms were maintained in nematode growth medium (NGM) plates that contain: 3 g/l NaCl, 17 g/l agar, 2.5 g/l peptone, 1 mM CaCl2, 5 mg/l cholesterol, 1 mM MgSO4, 25 mM potassium phosphate buffer (pH 6.0) with 1.25 ml nystatin and 50 mg/l streptomycin sulfate) and Escherichia coli (E. coli) OP50 strain was used as food ([Brenner, 1974]). […]
(§2) On day 2 and day 8, approximately, 20–30 worms per treatment were picked onto slides prepped with a 3% agarose pad, anesthetized with 5 μl of 3 mM levamisole hydrochloride ([Sulston et al., 1975]) and observed under an Olympus BX41 fluorescence microscope to determine morphology status according to novel Likert-like scale of degeneration as previously described ([Benedetto et al., 2010]).
(§3) Fig. 5. […] They were exposed to different aerugine concentrations and counted every 24 h. […] Differences on a given day were analyzed by ANOVA and found to be non-significant. […] The GFP-labelled neurons of 20–30 worms per condition were analyzed and scored for specific neurodegeneration. […] These scores were assessed to quantify the dopaminergic neurodegeneration caused be aerugine in vivo. […]

Experiment [3] relates to dopamine neurons of C. elegans BY200. In words: C. elegans dopaminergic neurodegeneration scoring (GFP-labelled neurons). It counts as in vivo, Caenorhabditis elegans. The settings on record: 48 h exposure. How it is done:
as §1, §2, §3

On to `OCC1CSC(c2ccccc2O)=N1` (centres unmarked) [aerugine, 2-[4-(hydroxymethyl)-4,5-dihydro-1,3-thiazol-2-yl]phenol], for which the “effect on cell viability” value in experiment [1] is “no effect”. Besides, in the experiment on other neurons, the pEC50 was 4.70 to 5.00. The “degeneration of GABA neurons” value in experiment [2] is “not affected”. For the same compound, the “DAergic neurons that lost their normal (fully) healthy phenotype” value in experiment [3] was “Up to 50%”. Further, the “degeneration of DA neurons” value in experiment [3] (L4 worms) is listed as “concentration-dependent degeneration of DA neurons; also recorded: specific neurodegeneration was observed”.
